A word on the DC50: it is the concentration giving 50% degradation. Broadly, the Dmax is the largest share of the target that was removed.

The record followed here is US20230265116A1, “DEGRADATION OF (EGFR) BY CONJUGATION OF EGFR INHIBITORS WITH E3 LIGASE LIGAND AND METHODS OF USE” (BEIGENE, LTD., priority 2020, published 2023).

Some results are limits rather than exact numbers.

Common to all, as to format: cell-based
The target in one experiment is T1, EGFR (HCC827 cells) (Homo sapiens, UniProt P00533, DEL746-750).
T1 construct: endogenous in cells; host or cells: HCC827
T1 sequence (P00533 with tags, fused parts or gaps DEL746-750): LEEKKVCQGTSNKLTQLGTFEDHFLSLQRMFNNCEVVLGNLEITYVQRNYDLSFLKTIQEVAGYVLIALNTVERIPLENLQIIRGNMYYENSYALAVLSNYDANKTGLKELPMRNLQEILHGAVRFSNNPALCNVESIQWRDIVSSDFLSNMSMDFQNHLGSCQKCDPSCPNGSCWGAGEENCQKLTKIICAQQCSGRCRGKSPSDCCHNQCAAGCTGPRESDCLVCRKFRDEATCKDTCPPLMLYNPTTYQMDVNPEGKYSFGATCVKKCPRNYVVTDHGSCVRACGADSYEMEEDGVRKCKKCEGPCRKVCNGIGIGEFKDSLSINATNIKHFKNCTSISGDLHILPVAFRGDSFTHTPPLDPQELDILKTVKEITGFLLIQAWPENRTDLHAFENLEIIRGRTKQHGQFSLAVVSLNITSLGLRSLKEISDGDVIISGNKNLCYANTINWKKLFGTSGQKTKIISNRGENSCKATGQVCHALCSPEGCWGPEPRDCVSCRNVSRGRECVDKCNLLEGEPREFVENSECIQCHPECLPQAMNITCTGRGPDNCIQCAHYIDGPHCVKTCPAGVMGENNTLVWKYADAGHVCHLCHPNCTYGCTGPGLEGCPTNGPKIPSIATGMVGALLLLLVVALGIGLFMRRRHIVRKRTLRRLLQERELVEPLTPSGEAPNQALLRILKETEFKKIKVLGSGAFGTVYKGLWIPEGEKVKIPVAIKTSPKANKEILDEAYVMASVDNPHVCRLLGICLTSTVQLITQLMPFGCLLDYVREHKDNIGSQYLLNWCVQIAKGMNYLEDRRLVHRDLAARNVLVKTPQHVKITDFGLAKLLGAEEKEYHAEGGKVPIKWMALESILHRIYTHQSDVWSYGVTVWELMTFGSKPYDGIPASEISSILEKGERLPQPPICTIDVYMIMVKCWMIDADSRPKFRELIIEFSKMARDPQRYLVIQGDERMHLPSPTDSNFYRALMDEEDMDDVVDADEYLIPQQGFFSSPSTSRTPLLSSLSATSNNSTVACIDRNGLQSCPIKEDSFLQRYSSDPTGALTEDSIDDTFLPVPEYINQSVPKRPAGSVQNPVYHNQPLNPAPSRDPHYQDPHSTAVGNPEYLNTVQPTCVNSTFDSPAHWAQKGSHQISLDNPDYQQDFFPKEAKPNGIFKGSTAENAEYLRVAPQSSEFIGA
Nature of the experiment: EGFR degradation HTRF assay, HCC827 cells. Particulars: HCC827, 16h treatment; for Dmax: maximum percentage of degradation. Put shortly: (§1)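 BaF3 (WT, Del19/T790M/C797S) and HCC827 cells exposed 16 h at 37 °C, 5% CO2 to compounds in 0.2% DMSO medium, 8 doses from 10 uM top, 5-fold steps. Lysates read by HTRF (665/620 nm); degradation % vs DMSO control, DC50 from four-parameter fit, Dmax as maximal degradation.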
(In TR-FRET formats the signal depends on donor and acceptor labels being close together.)

In experiment [1] the target is T2, EGFR L858R/T790M/C797S (BaF3-LTC cells) (Homo sapiens, UniProt P00533, C797S/L858R/T790M).
T2 construct: expressed in transfected cells; host or cells: BaF3
T2 sequence (P00533 25-1210 T790M/C797S/L858R): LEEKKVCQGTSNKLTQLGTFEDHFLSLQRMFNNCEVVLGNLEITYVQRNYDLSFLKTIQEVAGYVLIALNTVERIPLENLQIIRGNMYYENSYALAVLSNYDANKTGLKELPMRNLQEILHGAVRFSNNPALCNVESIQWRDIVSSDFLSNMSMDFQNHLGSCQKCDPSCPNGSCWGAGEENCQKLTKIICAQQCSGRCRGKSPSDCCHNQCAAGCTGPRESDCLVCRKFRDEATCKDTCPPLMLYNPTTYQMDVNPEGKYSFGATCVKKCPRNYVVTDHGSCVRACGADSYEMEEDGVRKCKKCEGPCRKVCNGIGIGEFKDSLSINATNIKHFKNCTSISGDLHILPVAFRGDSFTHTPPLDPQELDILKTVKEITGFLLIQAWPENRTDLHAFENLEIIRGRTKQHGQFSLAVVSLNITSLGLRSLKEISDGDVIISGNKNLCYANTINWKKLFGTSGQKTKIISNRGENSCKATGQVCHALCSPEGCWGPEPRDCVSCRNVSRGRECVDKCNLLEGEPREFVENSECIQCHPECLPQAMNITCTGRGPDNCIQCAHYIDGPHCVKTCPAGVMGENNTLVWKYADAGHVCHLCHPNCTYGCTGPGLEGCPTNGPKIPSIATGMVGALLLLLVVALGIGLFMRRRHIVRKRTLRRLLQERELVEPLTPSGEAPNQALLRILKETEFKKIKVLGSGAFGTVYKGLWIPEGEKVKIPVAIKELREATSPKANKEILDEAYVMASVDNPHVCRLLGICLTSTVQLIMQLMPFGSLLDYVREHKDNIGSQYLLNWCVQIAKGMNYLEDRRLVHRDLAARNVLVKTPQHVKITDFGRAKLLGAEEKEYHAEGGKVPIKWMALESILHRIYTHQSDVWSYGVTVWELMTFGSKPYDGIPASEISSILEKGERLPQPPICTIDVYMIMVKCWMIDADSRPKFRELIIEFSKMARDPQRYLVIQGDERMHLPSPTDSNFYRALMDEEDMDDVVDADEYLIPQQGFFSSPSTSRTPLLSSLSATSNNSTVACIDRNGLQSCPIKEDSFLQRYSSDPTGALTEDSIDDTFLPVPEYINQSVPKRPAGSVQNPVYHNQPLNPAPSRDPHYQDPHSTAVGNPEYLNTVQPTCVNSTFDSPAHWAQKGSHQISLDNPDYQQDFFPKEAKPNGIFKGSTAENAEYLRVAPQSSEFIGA
Nature of the experiment: EGFR degradation HTRF assay, BaF3-LTC cells. Conditions: BaF3-LTC, 16h treatment; for Dmax: maximum percentage of degradation, read-out: LTC Dmax (%); for DC50: read-out: LTC DC50. In short, it runs like this:
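EGFR remaining after a 16 h, 37 °C exposure (8 doses, 5-fold steps from 10 uM final, 0.2% DMSO) was quantified by HTRF antibodies in cell lysate. Percent inhibition relative to DMSO control was fitted by four-parameter logistic to give DC50; Dmax denotes maximal degradation.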

In experiment [2] the target is T3, EGFR L858R/T790M (H1975-clone #36, homozygous) (Homo sapiens, UniProt P00533, L858R/T790M).
T3 construct: designed to specifically target WT EGFR but preserve the L858R/T790M copy; host or cells: H1975-clone #36
T3 sequence (P00533 25-1210 T790M/L858R): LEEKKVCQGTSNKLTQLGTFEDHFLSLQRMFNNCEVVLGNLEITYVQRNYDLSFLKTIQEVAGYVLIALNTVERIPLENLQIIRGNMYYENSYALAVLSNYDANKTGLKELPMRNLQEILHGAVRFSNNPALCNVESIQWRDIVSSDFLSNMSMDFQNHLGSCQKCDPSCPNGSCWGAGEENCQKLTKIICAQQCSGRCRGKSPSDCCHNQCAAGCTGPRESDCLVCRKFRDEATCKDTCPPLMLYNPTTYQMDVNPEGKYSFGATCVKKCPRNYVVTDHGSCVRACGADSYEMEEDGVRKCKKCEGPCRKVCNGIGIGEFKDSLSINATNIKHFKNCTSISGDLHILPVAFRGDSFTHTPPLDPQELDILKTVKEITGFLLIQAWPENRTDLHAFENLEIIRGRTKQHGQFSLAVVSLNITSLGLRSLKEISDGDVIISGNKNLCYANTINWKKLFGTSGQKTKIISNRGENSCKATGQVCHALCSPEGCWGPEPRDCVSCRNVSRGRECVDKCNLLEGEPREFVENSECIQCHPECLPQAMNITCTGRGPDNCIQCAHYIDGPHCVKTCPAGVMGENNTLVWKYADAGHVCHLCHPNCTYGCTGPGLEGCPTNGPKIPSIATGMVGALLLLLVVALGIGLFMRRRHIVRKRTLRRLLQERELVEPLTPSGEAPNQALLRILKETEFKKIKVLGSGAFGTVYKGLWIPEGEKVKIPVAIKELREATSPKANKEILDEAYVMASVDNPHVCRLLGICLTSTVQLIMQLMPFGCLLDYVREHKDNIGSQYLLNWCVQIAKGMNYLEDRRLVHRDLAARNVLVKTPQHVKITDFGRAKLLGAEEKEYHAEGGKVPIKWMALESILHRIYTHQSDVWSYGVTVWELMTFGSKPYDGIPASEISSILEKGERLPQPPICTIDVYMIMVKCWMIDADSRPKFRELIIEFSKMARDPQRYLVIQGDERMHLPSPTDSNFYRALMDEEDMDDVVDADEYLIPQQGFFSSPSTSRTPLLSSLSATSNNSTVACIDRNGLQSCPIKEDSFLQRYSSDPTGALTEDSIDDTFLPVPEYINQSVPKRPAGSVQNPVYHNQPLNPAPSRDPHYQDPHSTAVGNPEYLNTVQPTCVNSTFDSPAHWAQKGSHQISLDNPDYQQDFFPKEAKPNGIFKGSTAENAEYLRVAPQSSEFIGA
The experiment can be described thus: EGFR degradation HTRF assay, H1975-clone #36 cells. Particulars: H1975 #36, 16h treatment; for Dmax: NCI-H1975, maximum percentage of degradation. Put shortly:
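Eight-point, 5-fold series starting at 10 uM (0.2% DMSO) applied for 16 h, 37 °C, to a WT-EGFR-knockout H1975 clone carrying only L858R/T790M. Lysates read by HTRF overnight. Degradation percentage relative to DMSO control fitted for DC50, with Dmax as maximum degradation.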

In experiment [3] the test system is EGFR Del19/T790M/C797S (BaF3-DTC cells). The experiment can be described thus: EGFR degradation HTRF assay, BaF3-DTC cells. Particulars: 16h treatment; for DTC Dmax (%): maximum percentage of degradation; for DC50: read-out: DTC DC50. In short, it runs like this: as §1

Consider `CCc1cc(Nc2ncc(Br)c(Nc3ccc4nccnc4c3P(C)(C)=O)n2)c(OC)cc1N1CCC(N2CCN(C(=O)[C@@H]3CCN(c4cc(F)c(C5CCC(=O)NC5=O)c(F)c4)C3)CC2)CC1` (stereo partly drawn) [Example 255, 3-(4-((R)-3-(4-(1-(4-((5-bromo-4-((5-(dimethylphosphoryl)quinoxalin-6-yl)amino)pyrimidin-2-yl)amino)-2-ethyl-5-methoxyphenyl)piperidin-4-yl)piperazine-1-carbonyl)pyrrolidin-1-yl)-2,6-difluorophenyl)piperidine-2,6-dione], for which the DC50 worked out at 2.87 nM on EGFR (HCC827 cells), 17.3 nM in experiment [1], 3.27 nM in experiment [2] and 5.62 nM in experiment [3]. Moreover, the figures for the maximal degradation (Dmax) (at EGFR (HCC827 cells); in experiment [1]; in experiment [2]) were 78.5%, 83.4% and 90.2%, respectively. The “DTC Dmax (%)” value in experiment [3] came to 96.33%.

Consider `CCc1cc(Nc2ncc(Br)c(Nc3ccc4c(=O)n(C)ncc4c3P(C)(C)=O)n2)c(OC)cc1N1CCC(N2CCN(CCC3CCN(c4cc(F)c(C5CCC(=O)NC5=O)c(F)c4)CC3)CC2)CC1` (centres unmarked) [Example 270, 3-(4-(4-(2-(4-(1-(4-((5-bromo-4-((5-(dimethylphosphoryl)-2-methyl-1-oxo-1,2-dihydrophthalazin-6-yl)amino)pyrimidin-2-yl)amino)-2-ethyl-5-methoxyphenyl)piperidin-4-yl)piperazin-1-yl)ethyl)piperidin-1-yl)-2,6-difluorophenyl)piperidine-2,6-dione], for which the DC50 at EGFR (HCC827 cells) was found to be 5.43 nM; in experiment [1], 24 nM; in experiment [2], 17.1 nM; in experiment [3], 6.97 nM. Further, the figures for the Dmax (at EGFR (HCC827 cells); in experiment [1]; in experiment [2]) were 89%, 84.2% and 84.6%, respectively. Besides, in experiment [3], the “DTC Dmax (%)” value was found to be 91.36%.

Consider `CCc1cc(Nc2ncc(Br)c(Nc3ccc4nccnc4c3P(C)(C)=O)n2)c(OC)cc1N1CCC(N2CCN(C3CC(c4ccc5c(c4)C(C)(C)C(=O)N5C4CCC(=O)NC4=O)C3)CC2)CC1` (centres unmarked) [Example 317, 3-(5-(3-(4-(1-(4-((5-bromo-4-((5-(dimethylphosphoryl)quinoxalin-6-yl)amino)pyrimidin-2-yl)amino)-2-ethyl-5-methoxyphenyl)piperidin-4-yl)piperazin-1-yl)cyclobutyl)-3,3-dimethyl-2-oxoindolin-1-yl)piperidine-2,6-dione], for which the DC50 at EGFR (HCC827 cells) was 0.779 nM; in experiment [1], 9.47 nM; in experiment [2], more than 80 nM; in experiment [3] it was 5.17 nM. Further, the values for the Dmax (on EGFR (HCC827 cells); in experiment [1]; in experiment [2]) were 51.6%, 94.1% and 47%, respectively. Besides, the “DTC Dmax (%)” value in experiment [3] was found to be 90.74%.

On to `CCc1cc(Nc2ncc(Br)c(Nc3ccc4nccnc4c3P(C)(C)=O)n2)c(OC)cc1N1CCC(N2CCN(CCc3cccc4c3n(C)c(=O)n4C3CCC(=O)NC3=O)CC2)CC1` (centres unmarked) [Example 318, 3-(4-(2-(4-(1-(4-((5-bromo-4-((5-(dimethylphosphoryl)quinoxalin-6-yl)amino)pyrimidin-2-yl)amino)-2-ethyl-5-methoxyphenyl)piperidin-4-yl)piperazin-1-yl)ethyl)-3-methyl-2-oxo-2,3-dihydro-1H-benzo[d]imidazol-1-yl)piperidine-2,6-dione], for which the DC50 at EGFR (HCC827 cells) stood at 0.601 nM; in experiment [1] it was 4.4 nM; in experiment [2], 2.14 nM; in experiment [3], 3.1 nM. Further, the Dmax stood at 85.2% on EGFR (HCC827 cells), 93.3% in experiment [1] and 88.8% in experiment [2]. In addition, the “DTC Dmax (%)” value in experiment [3] came to 91.99%.
